Test results reported in paper PMC8769378, “Underlining the Importance of Peripheral Protic Functional Groups to Enhance the Proton Exchange of Gd-Based MRI Contrast Agents” (Inorganic Chemistry, 2021).

Experiments:
[1] = Stability and protonation constants of Zn^II complexes by pH potentiometry; type: physicochemical
Text: (§1) The metal complexes of biomedical interest must show a high in vivo stability, which includes high thermodynamic stability and kinetic inertness to allow targeting applications and to avoid possible toxic effects derived by metal ion and ligand release via transmetalation or transchelation reactions.[2],[3],[13] The protonation constants of L2 as well as the stability and the protonation constants of GdL2 and those of the most important endogenous divalent metal complexes (Ca^II-, Zn^II-, and Cu^II) were determined by pH potentiometry (Table 1 and Table S1). In the case of GdL1, we were interested in determining the dissociation constant of the hydroxyl group that was measured also by pH potentiometry (Table 1). Experimental details and the definitions and equations used for the evaluation of the equilibrium and kinetic data are summarized in the SI.
The stability and protonation constants of Ca^2+, Zn^2+, and Cu^2+ complexes formed with the L1 ligand were determined by pH potentiometric titration. The metal-to-ligand concentration ratio was 1:1 (the concentration of the ligand was generally 0.002 M). The protonation constants of the GdL1 and GdL2 complexes were determined using pH potentiometry by titrating the preprepared complexes from pH = 3.0 to pH = 12 for GdL2 and from pH = 4.0 to pH = 12 for GdL1 with 0.2 M NaOH. The stability constants of GdL2 were determined by the “out-of-cell” technique because of the slow formation reaction. The pH range of the complexation equilibria and the time needed to reach the equilibria were determined by relaxometry for the formation of GdL2. […] For the calculation of the stability constants of GdL2, besides the protonation constants of ligands, the stability constants of the diprotonated *Gd(H2L2) out-of-cage complexes (considered as intermediates) were also used as fixed values, which were calculated from the pH potentiometric titration curve of the Gd^3+–L2 system obtained in the pH range 1.7–4.0.
For the pH measurements and titrations, the Metrohm 888 Titrando titration workstation Metrohm-6.0234.110 combined electrode was used. […] For the calculation of [H^+] from the measured pH values, the method proposed by Irving et al. was used as follows.[34] […] The differences (A) between the measured (pHread) and calculated (−log[H^+]) pH values were used to obtain the equilibrium H^+ concentration from the pH values measured in the titration experiments (A = 0.024). […]
The stability and protonation constants of CaII-, ZnII-, CuII- and GdIII-complexes of L2, expressed by Eqs. (S2) and (S3), were determined by pH-potentiometry and spectrophotometry at 25 °C in 0.15 M […]
where i=0, 1, 2, 3. […] The stability constant of GdL2 was calculated from the equilibrium data obtained by the “out-of-cell” technique due to the slow complexation reaction. […]

[2] = Protonation constants of the ligands by pH potentiometry; type: physicochemical; conditions: I = 0.15 M NaCl, 298 K
Text: as §1
The chemicals used for the experiments were of the highest analytical grade. The concentrations of the CaCl2, ZnCl2, CuCl2, and GdCl3 solutions were determined by complexometric titration with standardized Na2H2EDTA and xylenol orange (ZnCl2, and GdCl3), murexid (CuCl2), and Patton and Reeder (CaCl2) as indicators. The concentration of the H3L1 and H4L2 was determined by pH potentiometric titration in the presence and absence of a large (40-fold) excess of CaCl2. The pH potentiometric titrations were performed with standardized 0.2 M NaOH.
For the pH measurements and titrations, the Metrohm 888 Titrando titration workstation Metrohm-6.0234.110 combined electrode was used. Equilibrium measurements were carried out at a constant ionic strength (0.15 M NaCl) in 6 mL samples at 25 °C. The solutions were stirred, and N2 was bubbled through them. The titrations were made in the pH range 1.7–12.0. KH-phthalate (pH = 4.005) and borax (pH = 9.177) buffers were used to calibrate the pH meter. For the calculation of [H^+] from the measured pH values, the method proposed by Irving et al. was used as follows.[34] A 0.01 M HCl solution was titrated with standardized NaOH solution at 0.15 M NaCl ionic strength. The differences (A) between the measured (pHread) and calculated (−log[H^+]) pH values were used to obtain the equilibrium H^+ concentration from the pH values measured in the titration experiments (A = 0.024). For the equilibrium calculations, the stoichiometric water ionic product (pKw) was also needed to calculate [OH^–] values under basic conditions. The VNaOH–pHread data pairs of the HCl–NaOH titration obtained in the pH range 10.5–12.0 were used to calculate the pKw value (pKw = 13.79).

ZnH2L (log K) ([1]; 0.15 M NaCl, 25 °C): 3.32 (3)
ZnH3L (log K) ([1]; 0.15 M NaCl, 25 °C): 2.29 (5)
ZnHL (log K, protonation constant of the complex) ([1]; 0.15 M NaCl, 25 °C): 3.86 (5)
ZnL (log K, stability constant) ([1]; I = 0.15 M NaCl, 298 K): 17.81 (6)
log K5^H ([2]; first line headed log K5^H): 2.47 (4)
log K1^H ([2]; ligand protonation constant): 8.95 (3)
log K2^H ([2]; ligand protonation constant): 8.95 (2)
log K3^H ([2]; ligand protonation constant): 4.22 (3)
log K4^H ([2]; ligand protonation constant): 3.74 (3)
log K5^H ([2]; second line headed log K5^H (sixth constant)): 1.75 (4)
Structure (SMILES): O=C(O)CN1CCN(CC(=O)O)CCN(C[C@@H](O)C(=O)O)CCN(CC(=O)O)CC1 [L2, (R)2,2′,2″-(10-(2-Carboxy-2-hydroxyethyl)-1,4,7,10-tetraazacyclododecane-1,4,7-triyl) Triacetic Acid]
